From patent US20140155327A1, “Process for the Synchronization of Ovulation for Timed Breeding Without Heat Detection” (priority 2003, published 2014)

Tested on: postpartum sows
Test: Single timed injection 96 hours post-weaning and single timed insemination without estrus detection in postpartum sows (Example 3)
Type: in vivo, swine
Conditions: 50 mcg at 96 hours post-weaning
Description: Approximately 170 postpartum sows were randomly divided into two equal groups comprised of controls and treated. Following weaning, the controls were detected for estrus and bred following the normal standard operating procedures for the farms on which they resided. The treated sows received a 50 mcg dose of deslorelin in SAIB at 96 hours post-weaning and were bred with a single insemination 28+/−2 hours later with no regard to estrus detection. The sows were examined for pregnancy by ultrasound at 21 days and slaughtered around 28 days post breeding. The entire reproductive tract was removed and corpora lutea and embryos were counted.

Structure (SMILES): CCNC(=O)[C@@H]1CCCN1C(=O)[C@H](CCCN=C(N)N)NC(=O)[C@H](CC(C)C)NC(=O)[C@@H](Cc1c[nH]c2ccccc12)NC(=O)[C@H](Cc1ccc(O)cc1)NC(=O)[C@H](CO)NC(=O)[C@H](Cc1c[nH]c2ccccc12)NC(=O)[C@H](Cc1cnc[nH]1)NC(=O)[C@@H]1CCC(=O)N1 [Deslorelin, deslorelin]
- Sows Pregnant (single insemination 28+/-2 hours later, 84 in group): 60
- Embryo Survival (slaughter around 28 days post breeding): 64%
